Assay results as given in ChEMBL document CHEMBL6078612, “Novel strategies based on natural products and synthetic derivatives to overcome resistance in Mycobacterium tuberculosis” (Eur J Med Chem, 2024).
≈ marks a conversion by molar mass, not a printed value.

Legend:
[1] = Inhibition of Mycobacterium tuberculosis isocitrate lyase
[2] = test system: Mycobacterium tuberculosis; assay: Antitubercular activity against XDR Mycobacterium tuberculosis; format: functional
[3] = test system: Mycobacterium tuberculosis; assay: Antimycobacterial activity against Mycobacterium tuberculosis H37Rv assessed as reduction in bacterial cell growth by resazurin reduction method; format: functional

| Molecule | IC50 [1] [µM] | MIC [2] [µg/mL] | MIC [3] [µg/mL] |
| --- | --- | --- | --- |
| O=c1c(O)c(-c2ccc(O)c(O)c2)oc2cc(O)cc(O)c12 [QUERCETIN] | 3.57 | – | – |
| H-GWLDVAKKIGKAAFNVAKNFI-OH | – | < 0.97 | < 0.98 |
| CC(=O)NC[C@H]1CN(c2ccc(N3CCOCC3)c(F)c2)C(=O)O1 [LINEZOLID] | – | 0.125 (≈ 0.371 µM) | – |
